Molecules are shown by their SMILES.

The test addresses PI3-kinase p110α (Bos taurus). Briefly: The test compounds and enzyme were mixed in buffer, and the substrate and [gamma-33P] ATP/ATP were added to the mixture to initiate the reaction. After allowing the reaction to proceed at room temperature for 120 min, wheat germ agglutinin-coated SPA beads (Amersham) was added. The mixture was left to stand for 5 min and then centrifuged. Radi. The note with it: pH 7.4.

What is called IC50 is the concentration needed to halve the response being measured. In the case of `Cc1nc2ccc(Cl)cn2c1-c1ccn(S(=O)(=O)c2ccc([N+](=O)[O-])cc2)n1` [3-{6-chloro-2-methylimidazo[1,2-a]pyridin-3-yl}-1-[(4-nitrobenzene)sulfonyl]-1H-pyrazole], the concentration for half-maximal inhibition (IC50) was above 30000 nM.

As for `Cc1ccc([N+](=O)[O-])cc1S(=O)(=O)n1ccc(-c2cnc3ccc(Cl)cn23)c1` [3-{6-chloroimidazo[1,2-a]pyridin-3-yl}-1-[(2-methyl-5-nitrobenzene)sulfonyl]-1H-pyrrole], the IC50 worked out at 100 nM.
